Activity calls are given as the source filed them. The rule behind the calls is not given here.
Key:
[1] = Apparent terminal half life in Sprague-Dawley rat at 10 mg/kg, iv administered as single dose by LC-MS/MS analysis; assay type: ADME, organism-based; details: in vivo, read-out: betat1/2(app) (converted)
MCF7 [2] = assay: Cell cycle arrest in human MCF7 cells assessed as accumulation at G0/G1 phase at 1 uM after 48 hrs by propidium iodide staining based flow cytometry (reference value: 57.21%); assay type: functional
[3] = Plasma concentration in Sprague-Dawley rat at 10 mg/kg, iv administered as single dose measured at 2 hrs post dosing by LC-MS/MS analysis; assay type: ADME, organism-based
NCI/ADR-RES [4] = assay: Cell cycle arrest in human MCF7/ADR cells assessed as accumulation at S-phase at 0.5 uM after 24 hrs by propidium iodide staining based flow cytometry (reference value: 25.87%); assay type: functional
[5] = AUC (0 to t) in Sprague-Dawley rat at 10 mg/kg, iv administered as single dose by LC-MS/MS analysis; assay type: ADME, organism-based; details: in vivo
[6] = Plasma concentration in Sprague-Dawley rat at 10 mg/kg, iv administered as single dose measured at 1 hr post dosing by LC-MS/MS analysis; assay type: ADME, organism-based
NCI/ADR-RES [7] = assay: Cell cycle arrest in human MCF7/ADR cells assessed as accumulation at sub-G1 phase at 0.5 uM after 24 hrs by propidium iodide staining based flow cytometry (reference value: 1.08%); assay type: functional
NCI/ADR-RES [8] = assay: Antiproliferative activity against human MCF7/ADR cells after 96 hrs by MTT assay; assay type: functional
[9] = Plasma concentration in Sprague-Dawley rat at 10 mg/kg, iv administered as single dose measured at 0.083 hrs post dosing by LC-MS/MS analysis; assay type: ADME, organism-based
[10] = Plasma concentration in Sprague-Dawley rat at 10 mg/kg, iv administered as single dose measured at 0.5 hrs post dosing by LC-MS/MS analysis; assay type: ADME, organism-based
[11] = Plasma concentration in Sprague-Dawley rat at 10 mg/kg, iv administered as single dose measured at 0.25 hrs post dosing by LC-MS/MS analysis; assay type: ADME, organism-based
NCI/ADR-RES [12] = assay: Cell cycle arrest in human MCF7/ADR cells assessed as accumulation at G2/M phase at 0.5 uM after 48 hrs by propidium iodide staining based flow cytometry (reference value: 31.94%); assay type: functional
NCI/ADR-RES [13] = assay: Cell cycle arrest in human MCF7/ADR cells assessed as accumulation at S-phase at 1 uM after 48 hrs by propidium iodide staining based flow cytometry (reference value: 29.45%); assay type: functional
NCI/ADR-RES [14] = assay: Cell cycle arrest in human MCF7/ADR cells assessed as accumulation at sub-G1 phase at 0.5 uM after 48 hrs by propidium iodide staining based flow cytometry (reference value: 0.25%); assay type: functional
NCI/ADR-RES [15] = assay: Cell cycle arrest in human MCF7/ADR cells assessed as accumulation at G2/M phase at 1 uM after 48 hrs by propidium iodide staining based flow cytometry (reference value: 31.94%); assay type: functional
MCF7 [16] = assay: Cell cycle arrest in human MCF7 cells assessed as accumulation at S-phase at 0.5 uM after 48 hrs by propidium iodide staining based flow cytometry (reference value: 18.39%); assay type: functional
NCI/ADR-RES [17] = assay: Cell cycle arrest in human MCF7/ADR cells assessed as accumulation at G0/G1 phase at 0.5 uM after 24 hrs by propidium iodide staining based flow cytometry (reference value: 45.98%); assay type: functional
[18] = Plasma concentration in Sprague-Dawley rat at 10 mg/kg, iv administered as single dose measured at 8 hrs post dosing by LC-MS/MS analysis; assay type: ADME, organism-based
[19] = Apparent clearance in Sprague-Dawley rat at 10 mg/kg, iv administered as single dose by LC-MS/MS analysis; assay type: ADME, organism-based; details: in vivo, read-out: CL(app) (converted)
NCI/ADR-RES [20] = assay: Cell cycle arrest in human MCF7/ADR cells assessed as accumulation at sub-G1 phase at 1 uM after 24 hrs by propidium iodide staining based flow cytometry (reference value: 1.08%); assay type: functional
MCF7 [21] = assay: Cell cycle arrest in human MCF7 cells assessed as accumulation at G0/G1 phase at 0.5 uM after 24 hrs by propidium iodide staining based flow cytometry (reference value: 57.83%); assay type: functional
MCF7 [22] = assay: Cell cycle arrest in human MCF7 cells assessed as accumulation at S-phase at 0.5 uM after 24 hrs by propidium iodide staining based flow cytometry (reference value: 18.24%); assay type: functional
MCF7 [23] = assay: Cell cycle arrest in human MCF7 cells assessed as accumulation at sub-G1 phase at 0.5 uM after 24 hrs by propidium iodide staining based flow cytometry (reference value: 1.78%); assay type: functional
MCF7 [24] = assay: Cell cycle arrest in human MCF7 cells assessed as accumulation at G2/M phase at 0.5 uM after 24 hrs by propidium iodide staining based flow cytometry (reference value: 22.57%); assay type: functional
MCF7 [25] = assay: Cell cycle arrest in human MCF7 cells assessed as accumulation at S-phase at 1 uM after 24 hrs by propidium iodide staining based flow cytometry (reference value: 18.24%); assay type: functional
[26] = Plasma concentration in Sprague-Dawley rat at 10 mg/kg, iv administered as single dose measured at 4 hrs post dosing by LC-MS/MS analysis; assay type: ADME, organism-based
MCF7 [27] = assay: Cell cycle arrest in human MCF7 cells assessed as accumulation at S-phase at 1 uM after 48 hrs by propidium iodide staining based flow cytometry (reference value: 18.39%); assay type: functional
[28] = Cmax in Sprague-Dawley rat at 10 mg/kg, iv administered as single dose by LC-MS/MS analysis; assay type: ADME, organism-based; set-up: dose 10 mg/kg, route intravenous; details: in vivo
[29] = MRT (0 to infinity) in Sprague-Dawley rat at 10 mg/kg, iv administered as single dose by LC-MS/MS analysis; assay type: ADME, organism-based; details: in vivo
NCI/ADR-RES [30] = assay: Cell cycle arrest in human MCF7/ADR cells assessed as accumulation at G0/G1 phase at 1 uM after 48 hrs by propidium iodide staining based flow cytometry (reference value: 38.76%); assay type: functional
NCI/ADR-RES [31] = assay: Cell cycle arrest in human MCF7/ADR cells assessed as accumulation at G0/G1 phase at 1 uM after 24 hrs by propidium iodide staining based flow cytometry (reference value: 45.98%); assay type: functional
NCI/ADR-RES [32] = assay: Cell cycle arrest in human MCF7/ADR cells assessed as accumulation at sub-G1 phase at 1 uM after 48 hrs by propidium iodide staining based flow cytometry (reference value: 0.25%); assay type: functional
NCI/ADR-RES [33] = assay: Cell cycle arrest in human MCF7/ADR cells assessed as accumulation at G2/M phase at 0.5 uM after 24 hrs by propidium iodide staining based flow cytometry (reference value: 27.75%); assay type: functional
NCI/ADR-RES [34] = assay: Downregulation of Cyclin-D1 protein expression in human MCF7/ADR cells at 0.05 to 0.1 uM after 24 to 48 hrs by Western blot analysis; assay type: functional, cell-based
MCF7 [35] = assay: Cell cycle arrest in human MCF7 cells assessed as accumulation at G0/G1 phase at 0.5 uM after 48 hrs by propidium iodide staining based flow cytometry (reference value: 57.21%); assay type: functional
MCF7 [36] = assay: Antiproliferative activity against human MCF7 cells after 96 hrs by MTT assay; assay type: functional; details: MCF7, 96 h
MCF7 [37] = assay: Cell cycle arrest in human MCF7 cells assessed as accumulation at G2/M phase at 1 uM after 24 hrs by propidium iodide staining based flow cytometry (reference value: 22.57%); assay type: functional

Compound `C[C@H]1[C@@H](Oc2ccc(-c3cc(-c4ccccc4)[nH]n3)cc2)O[C@@H]2O[C@@]3(C)CC[C@H]4[C@H](C)CC[C@@H]1[C@@]24OO3` has a half-life [1] of 3.58 h, an Activity (MCF7 [2]) of 85.04% and a concentration at 2 h [3] of 227 ng/mL. The Activity (NCI/ADR-RES [4]) was 21.64%, the AUC(0-t) [5] was 2910 ng·h/mL and the concentration at 1 h [6] was 436 ng/mL. The Activity (NCI/ADR-RES [7]) was 1.89%, the GI50 (NCI/ADR-RES [8]) was 18 nM and the concentration at 0.083 h [9] was 4460 ng/mL. It also gave a concentration at 0.5 h [10] of 583 ng/mL, a concentration at 0.25 h [11] of 1720 ng/mL and an Activity (NCI/ADR-RES [12]) of 30.15%. It also gave an Activity (NCI/ADR-RES [13]) of 9.72%, an Activity (NCI/ADR-RES [14]) of 2.81% and an Activity (NCI/ADR-RES [15]) of 23.47%. It also gave an Activity (MCF7 [16]) of 3.87%, an Activity (NCI/ADR-RES [17]) of 50.52% and a concentration at 8 h [18] of 34.1 ng/mL. The clearance [19] was 57.7 mL/min/kg, the Activity (NCI/ADR-RES [20]) was 4.73% and the Activity (MCF7 [21]) was 70.95%. It also gave an Activity (MCF7 [22]) of 11.95%, an Activity (MCF7 [23]) of 0.44% and an Activity (MCF7 [24]) of 16.94%. For the same compound, the Activity (MCF7 [25]) was 10.13%, the concentration at 4 h [26] was 147 ng/mL and the Activity (MCF7 [27]) was 2.14%. For the same compound, the Cmax [28] was 4460 ng/mL, the MRT inf [29] was 2.28 h and the Activity (NCI/ADR-RES [30]) was 56.01%. The Activity (NCI/ADR-RES [31]) was 61.78%, the Activity (NCI/ADR-RES [32]) was 10.99% and the Activity (NCI/ADR-RES [33]) was 26.29%. For the same compound, the Activity (NCI/ADR-RES [34]) was “inactive”, the Activity (MCF7 [35]) was 83.54% and the GI50 (MCF7 [36]) was 210 nM. For the same compound, the Activity (MCF7 [37]) was 16.98%.

From ChEMBL document CHEMBL4251553, “Synthesis, anticancer evaluation and pharmacokinetic study of novel 10-O-phenyl ethers of dihydroartemisinin” (Eur J Med Chem, 2017)
